Data: ChEMBL document CHEMBL5150003, “Why All the Fury over Furin?” (J Med Chem, 2022)
Numbered stars: 1 amine (or outer) side, 2 acyl side, 3 side chain; on linkers, the order of the positions; unused ones are H or OH. Square brackets hold non-standard residues; d marks the D form. Peptide text beside a SMILES is read from it. * marks the point of attachment. X2 = CC(C(=O)[*:2])n1cc(C(CCCNC(=N)N)N[*:1])nn1; X1 = C[C@@H](O)[C@H](NN(CCCNC(N)N)CN*)C(N)=O; NH(4-amidinobenzyl) = N=C(N)c1ccc(CN*)cc1; PhAc = O=C(Cc1ccccc1)*; X5 = N=C(N)NC/C=C/CN*

Key:
[1] = Stability in mouse plasma assessed as compound remaining measured after 24 hrs; format: ADME, cell-free; details: read-out: Stability
[2] = test system: Vero; test: Protective activity against Escherichia coli O157:H7 Shiga toxin-induced cytotoxicity in monkey Vero cells measured by LDH assay; format: functional, cell-based; details: Chlorocebus sabaeus
[3] = target: T1, Furin (Homo sapiens, UniProt P09958); test: Inhibition of furin (unknown origin)
T1 sequence (P09958 whole entry): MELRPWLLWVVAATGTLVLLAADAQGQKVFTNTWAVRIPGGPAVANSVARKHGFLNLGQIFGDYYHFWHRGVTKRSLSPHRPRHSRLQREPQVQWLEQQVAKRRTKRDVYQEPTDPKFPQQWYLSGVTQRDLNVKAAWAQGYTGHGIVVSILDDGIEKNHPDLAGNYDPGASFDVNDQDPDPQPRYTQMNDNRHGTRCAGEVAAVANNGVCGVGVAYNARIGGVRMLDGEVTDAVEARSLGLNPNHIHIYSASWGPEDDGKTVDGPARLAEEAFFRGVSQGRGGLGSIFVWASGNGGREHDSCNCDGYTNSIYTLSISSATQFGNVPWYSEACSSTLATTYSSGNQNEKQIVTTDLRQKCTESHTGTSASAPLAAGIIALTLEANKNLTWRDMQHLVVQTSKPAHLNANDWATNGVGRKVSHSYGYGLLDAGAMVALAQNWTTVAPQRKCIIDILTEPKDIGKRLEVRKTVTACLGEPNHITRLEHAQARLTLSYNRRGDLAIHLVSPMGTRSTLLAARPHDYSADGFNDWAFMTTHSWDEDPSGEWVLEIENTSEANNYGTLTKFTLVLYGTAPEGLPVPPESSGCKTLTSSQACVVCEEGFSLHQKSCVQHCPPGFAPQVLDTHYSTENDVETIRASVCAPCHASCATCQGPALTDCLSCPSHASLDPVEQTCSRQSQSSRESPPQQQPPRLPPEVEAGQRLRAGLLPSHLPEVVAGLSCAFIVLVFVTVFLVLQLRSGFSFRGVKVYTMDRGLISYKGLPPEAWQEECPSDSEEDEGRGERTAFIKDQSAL

[4] = Stability in mouse plasma assessed as half-life; format: ADME, cell-free
[5] = Cytotoxicity against chinese hamster CHO-DG44 cells assessed as cell viability at 100 uM and measured after 2 hrs by WST-1 method; format: toxicity, cell-based, Cricetulus griseus; details: read-out: Activity
[6] = test system: RAW264.7; test: Protective activity against Anthrax toxin-induced cytotoxicity in mouse RAW264.7 cells measured by WST-1 method; format: functional; details: dose 100 µM
[7] = Protective activity against Pseudomonas aeruginosa exotoxin A-induced cytotoxicity in chinese hamster CHO-DG44 cells measured by WST-1 method; format: functional, Cricetulus griseus; details: dose 100 µM
[8] = Inhibition of migration of human HT-1080 cells at 100 uM measured by calcein AM/ethidium homodimer (EthD-1) staining method; format: functional
[9] = target: T1, Furin; test: Inhibition of Recombinant vaccinia-expressed furin (unknown origin) using Pyr-RTKR-MCA as substrate and measured by fluorescence based assay
[10] = Cytotoxicity against human HT-1080 cells assessed as cell viability at 100 uM and measured after 2 hrs by WST-1 method; format: toxicity, cell-based; details: read-out: Activity
[11] = target: T1, Furin; test: Inhibition of soluble recombinant human furin using pyroGlu-Arg-Thr-Lys-Arg-AMC as substrate and measured by fluorescence assay
[12] = target: T1, Furin; test: Inhibition of human furin using Pyr-RTKR-AMC as substrate preincubated for 30 mins followed by substrate addition and measured by fluorescence based assay
[13] = target: T1, Furin; test: Inhibition of recombinant human furin using Phac-Arg-Val-Arg-Arg-AMC as substrate incubated for 30 mins and measured by microplate reader method
[14] = target: T1, Furin; test: Inhibition of human furin expressed in HEK293 cells using pGlu-Arg-Thr-LysArg-AMC as substrate and measured by fluorescence based assay
[15] = target: T1, Furin; test: Inhibition of furin in human U2OS cells measured after 24 hrs by fluorescence assay; format: cell-based
[16] = test system: Mus musculus; test: Antifibrotic activity against bleomycin-induced mouse lung fibrosis model assessed as inhibition of TGF-beta secretion in lung at 30 mg/kg, po administered once daily; format: functional
[17] = test system: Mus musculus; test: Antifibrotic activity against bleomycin-induced mouse lung fibrosis model assessed as inhibition of hydroxyproline content in lung at 30 mg/kg, po administered once daily; format: functional

CC(=O)NN(CCCNC(=N)N)CC(=O)N[C@@H](C)C(=O)N[C@@H](CCCNC(=N)N)C(=O)N[C@@H](CCCNC(=N)N)C(=O)N[C@@H](CCCNC(=N)N)C(=O)N[C@@H](CCCCN)C(=O)N[C@@H](CCCCN)C(=O)NN(CCCNC(=N)N)CC(=O)N[C@H](C(N)=O)[C@@H](C)O
remaining at 24 h [1]: 45%
IC50 [2]: 20.8 µM
Ki [3]: 46 nM
half-life [4]: 161 min

CC1C(=O)N[C@@H](CCCNC(=N)N)C(=O)N[C@@H](C)C(=O)N[C@@H](CCCNC(=N)N)C(=O)N[C@@H](CCCNC(=N)N)C(=O)N[C@@H](CCCNC(=N)N)C(=O)N[C@H](C(=O)N[C@@H](CCCCN)C(=O)N[C@@H](CCCNC(=N)N)C(=O)N[C@H](C(N)=O)[C@@H](C)O)CCCCNC(CCCNC(=N)N)c2cn1nn2 (stereo partly drawn)
remaining at 24 h [1]: 28%
Ki [3]: 16.7 nM
half-life [4]: 42 min

N=C(N)Nc1ccc(Oc2cccc(Oc3ccc(NC(=N)N)cc3NC(=N)N)c2)c(NC(=N)N)c1
viability at 2 h, 100 µM [5]: > 60%
Activity [6]: 100%
Activity [7]: <40%
inhibition at 100 µM [8]: < 20%
Ki [9]: 400 nM
viability at 2 h, 100 µM [10]: > 60%

CC(C(=O)N[C@@H](C)C(=O)N[C@@H](CCCNC(=N)N)C(=O)N[C@@H](CCCNC(=N)N)C(=O)N[C@@H](CCCNC(=N)N)C(=O)N[C@@H](CCCCN)C(=O)N[C@@H](CCCCN)C(=O)N[C@@H](CCCNC(=N)N)C(=O)N[C@H](C(N)=O)[C@@H](C)O)n1cc(C(CCCNC(=N)N)NC(=O)[C@@H](N)CCCNC(=N)N)nn1 (stereo partly drawn) (H-R[X2]ARRRKKRT-NH2)
remaining at 24 h [1]: 20%
Ki [3]: 13 nM
half-life [4]: 74.2 min

CC(=O)N[C@@H](CCCNC(=N)N)C(=O)N[C@@H](C)C(=O)N[C@@H](CCCNC(=N)N)C(=O)N[C@@H](CCCNC(=N)N)C(=O)N[C@@H](CCCNC(=N)N)C(=O)N[C@@H](CCCCN)C(=O)N[C@@H](CCCCN)C(=O)NCN(CCCNC(N)N)N[C@H](C(N)=O)[C@@H](C)O (Ac-RARRRKK-X1)
remaining at 24 h [1]: 57%
IC50 [2]: 314 µM
Ki [3]: 28 nM
half-life [4]: 135 min

N=C(N)N/N=C/c1ccc(N2CCN(c3ccc(/C=N/NC(=N)N)cc3)CC2)cc1
Ki [11]: 1540 nM

CC(=O)N[C@@H](CCCNC(=N)N)C(=O)N[C@H](C(=O)N[C@@H](Cc1ccc(N=C(N)N)cc1)C(=O)NCc1ccc(C(=N)N)cc1F)C(C)C
Ki [12]: 9 nM

N=C(N)N/N=C/c1ccc(Oc2ccc(Oc3ccc(/C=N/NC(=N)N)cc3)cc2)cc1
Ki [11]: 740 nM

CC(C)[C@H](NS(=O)(=O)Cc1ccc(C(=N)N)cc1)C(=O)N[C@@H](CCCNC(=N)N)C(=O)NCc1ccc(C(=N)N)cc1
Ki [12]: 300 nM

CC(C)(C)[C@H](NC(=O)CCCCNC(=N)N)C(=O)N[C@@H](CCCNC(=N)N)C(=O)NCc1ccc(C(=N)N)cc1
Ki [13]: 1.26 nM

CC(C)(C)[C@H](NC(=O)[C@H](CCCNC(=N)N)NC(=O)Cc1ccc(CNC(=N)N)cc1)C(=O)N[C@@H](CCCONC(=N)N)C(=O)NCc1ccc(C(=N)N)cc1
Ki [13]: 0.0131 nM

N=C(N)N/N=C/c1cccc(OCCCOc2cccc(/C=N/NC(=N)N)c2)c1
Ki [11]: 1700 nM

CC(C)[C@H](NC(=O)[C@H](CCCNC(=N)N)NC(=O)Cc1cccc(CNC(=N)N)c1)C(=O)N[C@@H](CCCNC(=N)N)C(=O)NCc1ccc(C(=N)N)cc1
Ki [14]: 0.016 nM

CC(C)(C)[C@H](NC(=O)[C@H](CCCNC(=N)N)NC(=O)Cc1ccccc1)C(=O)N[C@@H](CCCNC(=N)N)C(=O)NCc1ccc(C(=N)N)cc1
Ki [14]: 0.17 nM

CC(=O)N[C@@H](CCCNC(=N)N)C(=O)N[C@H](C(=O)N[C@@H](Cc1ccc(N=C(N)N)cc1)C(=O)NCc1ccc(C(=N)N)c(F)c1)C(C)C
Ki [12]: 3.7 nM

N=C(N)Nc1ccc(OC2CCCC(Oc3ccc(NC(=N)N)cc3NC(=N)N)C2)c(NC(=N)N)c1 (stereo not drawn)
viability at 2 h, 100 µM [5]: > 90%
Activity [6]: 70%
Activity [7]: 30%
inhibition at 100 µM [8]: < 40%
Ki [9]: 1200 nM
viability at 2 h, 100 µM [10]: > 90%

CC(C)[C@H](NC(=O)CCCCNC(=N)N)C(=O)N[C@@H](CCCNC(=N)N)C(=O)NCc1ccc(C(=N)N)cc1
Ki [13]: 2.5 nM

CC(=O)NCC1CCN(Cc2cc(Oc3ccc(N4CCN(CCS(C)(=O)=O)CC4)nc3)nc(-c3cc(Cl)cc(Cl)c3)c2)CC1
pXC50 [15]: 7.6
inhibition in vivo at 30 mg/kg [16]: 41%
inhibition in vivo at 30 mg/kg [17]: 45%

N=C(N)Nc1ccc(O[C@H]2C[C@@H](Oc3ccc(NC(=N)N)cc3NC(=N)N)[C@H](NC(=N)N)C[C@@H]2NC(=N)N)cc1
viability at 2 h, 100 µM [5]: > 90%
Activity [6]: >80%
Activity [7]: >30%
inhibition at 100 µM [8]: 30%
Ki [9]: 89 nM
viability at 2 h, 100 µM [10]: > 90%

C/C(=N\NC(=N)N)c1ccc(NC(=O)CCCCC(=O)Nc2ccc(/C(C)=N/NC(=N)N)cc2)cc1
Ki [11]: 1210 nM

COC(=O)NCC1CCN(Cc2cc(Oc3cnc(N4CCN(CCC(=O)O)CC4)nc3)nc(-c3cc(Cl)cc(Cl)c3)c2)CC1
pXC50 [15]: 7.5
inhibition in vivo at 30 mg/kg [16]: 7%
inhibition in vivo at 30 mg/kg [17]: -14%

CC(=O)N[C@@H](CCCNC(=N)N)C(=O)N[C@H](C(=O)N[C@@H](Cc1ccc(N=C(N)N)cc1)C(=O)NCc1ccc(/C(N)=N/O)cc1)C(C)C
Ki [12]: 1200 nM

O=C(O)CC1CCN(Cc2cc(Oc3cnc(N4CCN5CCC4C5)nc3)nc(-c3cc(Cl)cc(Cl)c3)c2)CC1 (stereo not drawn)
pXC50 [15]: 7.7
inhibition in vivo at 30 mg/kg [16]: 36%
inhibition in vivo at 30 mg/kg [17]: 34%

CN1CCCN(c2ncc(Oc3cc(CN4CCC(CC(=O)O)CC4)cc(-c4cc(Cl)cc(Cl)c4)n3)cn2)CC1
pXC50 [15]: 8.2
inhibition in vivo at 30 mg/kg [16]: 34%
inhibition in vivo at 30 mg/kg [17]: 36%

N=C(N)Nc1ccc(OCCCOc2ccc(NC(=N)N)cc2NC(=N)N)c(NC(=N)N)c1
viability at 2 h, 100 µM [5]: > 90%
Activity [6]: 50%
Activity [7]: <30%
inhibition at 100 µM [8]: < 40%
Ki [9]: 2700 nM
viability at 2 h, 100 µM [10]: > 90%

C/C(=N\NC(=N)N)c1ccc(OCCCOc2ccc(/C(C)=N/NC(=N)N)cc2)cc1
Ki [11]: 1430 nM

CC(=O)N[C@@H](CCCNC(=N)N)C(=O)NN(CCCNC(=N)N)CC(=O)N[C@@H](C)C(=O)N[C@@H](CCCNC(=N)N)C(=O)N[C@@H](CCCNC(=N)N)C(=O)N[C@@H](CCCNC(=N)N)C(=O)N[C@@H](CCCCN)C(=O)N[C@@H](CCCCN)C(=O)N[C@@H](CCCNC(=N)N)C(=O)N[C@H](C(N)=O)[C@@H](C)O
remaining at 24 h [1]: 29%
IC50 [2]: > 1000 µM
Ki [3]: 12 nM
half-life [4]: 62.4 min

CC(C)[C@H](NC(=O)[C@H](CCCNC(=N)N)NC(=O)Cc1ccc(CNC(=N)N)cc1)C(=O)N[C@@H](CCCNC(=N)N)C(=O)NCc1ccc(C(=N)N)cc1
Ki [14]: 0.0076 nM

CC(=O)N[C@@H](CCCNC(=N)N)C(=O)N[C@H](C(=O)N[C@@H](Cc1ccc(N=C(N)N)cc1)C(=O)NCc1ccc(C(=N)N)cc1)C(C)C
Ki [12]: 7 nM

CC(=O)N[C@@H](CCCNC(=N)N)C(=O)N[C@@H](C)C(=O)N[C@@H](CCCNC(=N)N)C(=O)N[C@@H](CCCNC(=N)N)C(=O)N[C@@H](CCCNC(=N)N)C(=O)N[C@@H](CCCCN)C(=O)N[C@@H](CCCCN)C(=O)NCc1ccc(C(=N)N)cc1 (Ac-RARRRKK-{NH(4-amidinobenzyl)})
IC50 [2]: > 1000 µM
Ki [3]: 3.8 nM
half-life [4]: 546 min

CC(=O)N[C@@H](CCCNC(=N)N)C(=O)N[C@@H](C)C(=O)N[C@@H](CCCNC(=N)N)C(=O)N[C@@H](CCCNC(=N)N)C(=O)N[C@@H](CCCNC(=N)N)C(=O)N[C@@H](CCCCN)C(=O)N[C@@H](CCCCN)C(=O)NC/C=C/CNC(=N)N (Ac-RARRRKK-X5)
IC50 [2]: 71 µM

CC(C)[C@H](NC(=O)[C@H](CCCNC(=N)N)NC(=O)[C@H](CCCNC(=N)N)NC(=O)[C@H](CCCNC(=N)N)NC(=O)Cc1ccccc1)C(=O)N[C@@H](CCCNC(=N)N)C(=O)NCc1ccc(C(=N)N)cc1 (PhAc-RRRVR-{NH(4-amidinobenzyl)})
Ki [13]: 0.0138 nM

CN1CCCN(c2cnc(Oc3cc(CN4CCC(CC(=O)O)CC4)cc(-c4cc(Cl)cc(Cl)c4)n3)cn2)CC1
pXC50 [15]: 7.7
inhibition in vivo at 30 mg/kg [16]: 26%
inhibition in vivo at 30 mg/kg [17]: 21%
